{"source": "ChEMBL document CHEMBL1133427", "about": "“Membrane-permeant, bioactivatable analogues of cGMP as inducers of cell death in IPC-81 leukemia cells” (Bioorg Med Chem Lett, 2000)", "key": {"[1]": {"experiment": "Effective dose of compound required to induce death in IPC-81 leukemia cells; Range 40-80", "assay_type": "functional, cell-based, Rattus norvegicus"}, "[2]": {"species": "Rattus norvegicus", "experiment": "Compound was tested as initiator of cell death in IPC-81 leukemia cells; Inactive", "assay_type": "functional, cell-based"}}, "note": "Activity calls are given as the source filed them. No cut-off for these calls is given here.", "data": [{"smiles": "CC(=O)OCOP1(=O)OC[C@@H]2O[C@@H](n3cnc4c(=O)n(C)c(N)nc43)[C@H](O)[C@@H]2O1", "note": "(stereo partly specified)", "values": [{"measurement": "EC50", "setting": "[1]", "value": 80, "unit": "µM"}, {"measurement": "Activity", "setting": "[2]", "value": "inactive"}]}, {"smiles": "CC(=O)OCOP1(=O)OCC2OC(n3cnc4c(=O)n(C)c(N)nc43)CC(O)C2O1", "note": "(stereo unspecified)", "values": [{"measurement": "Activity", "setting": "[2]", "value": "inactive"}]}, {"smiles": "CC(=O)OCOP1(=O)OC[C@@H]2O[C@@H](N3C(Sc4ccc(Cl)cc4)=NC4C(=O)N=C(N)N=C43)[C@H](O)[C@@H]2O1", "note": "(stereo partly specified)", "values": [{"measurement": "Activity", "setting": "[2]", "value": "inactive"}]}, {"smiles": "CC(=O)OCOP1(=O)OC[C@@H]2O[C@@H](n3c(Br)nc4c(O)nc(N)nc43)[C@H](O)[C@@H]2O1", "note": "(stereo partly specified)", "values": [{"measurement": "EC50", "setting": "[1]", "value": 80, "unit": "µM"}, {"measurement": "Activity", "setting": "[2]", "value": "inactive"}]}]}
